The values below come from ChEMBL document CHEMBL3132788, “A new route towards fimbrolide analogues: importance of the exomethylene motif in LuxR dependent quorum sensing inhibition” (Medchemcomm, 2013).

Structures are written as SMILES. pIC50: −log10 of the molar value. Calls of active or inactive are those of the source. The calls are words filed in the database; no cut-off is given here.

The nature of series [1]: (§1) Antagonist activity at quorum sensing system in Escherichia coli NM522 carrying Vibrio fischeri luxR and luxICDBE promoter region assessed as inhibition of 3-oxo-C6HSL induced bioluminescence production after 4 to 5 hrs by luminometer.
Series [2] deals with Escherichia coli. In words: Agonist activity at quorum sensing system in Escherichia coli NM522 carrying Vibrio fischeri luxR and luxICDBE promoter region assessed as bioluminescence production after 4 to 5 hrs by luminometer.
Series [3] has as its system Escherichia coli. The experiment in a line: Growth inhibition of Escherichia coli NM522 carrying Vibrio fischeri luxR and luxICDBE promoter region at 20 uM to 20 mM after overnight incubation by disk diffusion assay. The series is classed as organism-based. Particulars: in vivo. (In general: In agar diffusion tests the substance spreads into inoculated agar from a disc or well.)

The subject of series [4] is Escherichia coli. The series is described as §1.

By pIC50 is commonly meant the negative decadic logarithm of the IC50, by convention in mol/L. Turning to `CCCCCCCC(O)C1=C/C(=C/Br)OC1=O` (centres undefined), the pIC50 in series [1] is 4.60. Besides, the result in the series with Escherichia coli [2] was inactive.

Turning to `CCCCC1=C/C(=C/Br)OC1=O`, the pIC50 in series [1] is 6.22. In the series on Escherichia coli [3], the Activity entry is reported as “Non-toxic”. Further, in the series on Escherichia coli [2], the result was inactive.

`CCCCC1=CCOC1=O`: the pIC50 in series [1] was under 3.70. Further, in the series with Escherichia coli [2], the result was inactive.

Regarding `CCCCCCC1=CCOC1=O`, the pIC50 in series [1] was under 3.70. Further, the outcome in the series on Escherichia coli [2] was inactive.

Turning to `CCCCCCCC(O)C1=CCOC1=O` (centres undefined), the inhibition entry in the series on Escherichia coli [4] was “inactive”. The outcome with Escherichia coli [2] was inactive.

As to `CCCCCC(O)C1=CCOC1=O` (centres undefined), the inhibition result in the series with Escherichia coli [4] was “inactive”. In addition, the outcome with Escherichia coli [2] was inactive.

As to `C=C1C=C(C(O)CCC)C(=O)O1` (centres undefined), the pIC50 in series [1] was 4.28. In the series with Escherichia coli [2], the result was inactive.

As to `C=C1C=C(C(O)CCCCCCC)C(=O)O1` (centres undefined), in series [1], the pIC50 was 4.82. Also, the outcome in the series on Escherichia coli [2] was inactive.

Consider `CCCCCC(O)C1=C/C(=C/Br)OC1=O` (centres undefined), for which the pIC50 in series [1] is 5.22. In addition, in the series with Escherichia coli [2], the outcome was inactive.

Regarding `CCCC(O)C1=C/C(=C/Br)OC1=O` (centres undefined), the pIC50 in series [1] is 4.85. The result in the series with Escherichia coli [2] was inactive.

With `C=C1C=C(C(O)CCCCC)C(=O)O1` (centres undefined), the negative logarithm of the IC50 (pIC50) in series [1] was 5.10. For the same compound, in the series on Escherichia coli [2], the outcome was inactive.

`CCCCC1=C(Br)/C(=C/Br)OC1=O`: in series [1], the pIC50 was 4.35.

For the compound `C=C1C=C(CCCCCC)C(=O)O1`, the pIC50 in series [1] is under 3.70. Moreover, the outcome with Escherichia coli [2] was inactive.

On to `CCCCCCC1=C/C(=C/Br)OC1=O`, for which the pIC50 in series [1] is 5.52. Further, the outcome in the series on Escherichia coli [2] was inactive.

For `CCCC(O)C1=C/C(=C\Br)OC1=O` (centres undefined), the pIC50 in series [1] was 4.74. Further, the result in the series on Escherichia coli [2] was inactive.

`C=C1C=C(CCCC)C(=O)O1`: in series [1], the pIC50 was under 3.70. Also, the result in the series with Escherichia coli [2] was inactive.

As for `CCCC(O)C1=CCOC1=O` (centres undefined), the inhibition result with Escherichia coli [4] was “inactive”. The result with Escherichia coli [2] was inactive.
